In patent publication US12522596B2, “Compounds as GLP-1R agonists” (Terns Pharmaceuticals, Inc., priority 2021, dated 2026):
Where two headings read alike, the source gives them in different places.

Assay: Pharmacokinetics in hGLP-1R mice after oral dosing
Format: in vivo, male C57BL/6J hGLP-1R mouse
Conditions: male, C57BL/6J hGLP-1R, mouse, plasma, po; for concentration at 120 min: hGLP-1R mouse plasma collected at 120 min (IPGTT cohort); for MRT inf: read-out: MRT0-inf; for MRT last: read-out: MRT0-last; for AUC0-inf: read-out: AUC0-inf
Method: IPGTT (120 min)—PK bleeding: 40 μL blood samples (all treatment groups) were collected from mice under the jaw at IPGTT-120 min after blood glucose measurement into pre-chilled EDTA-2K tubes. Blood samples were processed for plasma by centrifugation at 4° C., 3200×g for 10 min. 15 μL plasma was stored at −80° C. for PK analysis. From 4 mice in Group 7 of the PD cohort, whole brain was collected after blood is harvested at 120 min post dose, rinsed with saline and patted dry and placed into a pre-weighed tube and stored at −80° C. collected for PK analysis.
PK bleeding group design is described in Table 9.
PK bleeding: 30 μL blood was collected at 0.25, 0.5, 1, 2, 4, and 8 h. Blood samples were processed for plasma by centrifugation at 4° C., 3200×g for 10 min. 12 μL plasma was collected at −80° C. for further analysis. From 3 mice in Group 7 of the PK cohort, whole brain was collected after blood is harvested at 8 hr post dose, rinsed with saline and patted dry and placed into a pre-weighed tube and stored at −80° C. collected for PK analysis.
For plasma: An aliquot of 3 μL sample was protein precipitated with 60 μL internal standard (100 ng/mL Labetalol & 100 ng/ml Dexamethasone & 100 ng/ml Tolbutamide & 100 ng/mL Verapamil & 100 ng/ml Glyburide & 100 ng/ml Celecoxib in ACN) and then the mixture was vortex-mixed for 10 min at 800 rpm and centrifuged for 15 min at 3220×g, 4° C.
The linear/log trapezoidal rule was applied in obtaining the PK parameters. Individual plasma concentration values that were below the lower limit of quantitation (LOQ) were excluded from the PK parameter calculation. The nominal dose levels and nominal sampling times were used in the calculation of all pharmacokinetic parameters.

[1] = 0.3 mg/kg, hGLP-1R mouse plasma, PO 0.3 mg/kg, read-out: Mean Concentration
[2] = 0.3 mg/kg, hGLP-1R mouse plasma, PO 0.3 mg/kg, individual animals, read-out: Concentration
[3] = 0.3 mg/kg, hGLP-1R mouse plasma, PO 0.3 mg/kg, individual mice
[4] = 0.3 mg/kg, hGLP-1R mouse plasma, PO 0.3 mg/kg, mean
[5] = 1 mg/kg, hGLP-1R mouse plasma, PO 1 mg/kg, individual animals, read-out: Concentration
[6] = 1 mg/kg, hGLP-1R mouse plasma, PO 1 mg/kg, read-out: Mean Concentration
[7] = 1 mg/kg, hGLP-1R mouse plasma, PO 1 mg/kg, individual mice
[8] = 1 mg/kg, hGLP-1R mouse plasma, PO 1 mg/kg, mean

Which results are given for `N#Cc1ccc(COc2cccc(C3CCN(Cc4nc5ccc(C(=O)O)cc5n4C[C@@H]4CCO4)CC3)n2)c(F)c1` [Reference Compound A, reference compound]?
concentration at 120 min (0.3 mg/kg, PO 0.3 mg/kg, read-out: Mean Concentration): 7.16 ng/mL; concentration at 0.25 h [1]: 24.9 ng/mL; concentration at 0.5 h [2]: 19.6 ng/mL; concentration at 0.5 h [1]: 17.3 ng/mL; concentration at 1 h [1]: 16 ng/mL; concentration at 2 h (0.3 mg/kg, hGLP-1R mouse plasma, PO 0.3 mg/kg): 3.37 ng/mL; concentration at 4 h [2]: < 1 ng/mL; MRT inf [3]: 56.6 min; MRT last [3]: 48.2 min; half-life (0.3 mg/kg, hGLP-1R mouse plasma, PO 0.3 mg/kg, individual mice, read-out: T1/2 (converted)): 28.9 min; Tmax (0.3 mg/kg, hGLP-1R mouse plasma, PO 0.3 mg/kg, individual mice, read-out: Tmax): 30 min; AUC0-inf [4]: 27.6 ng·h/mL; AUC(0-t) (0.3 mg/kg, hGLP-1R mouse plasma, PO 0.3 mg/kg, mean, read-out: AUC0-last): 24.5 ng·h/mL; Cmax (0.3 mg/kg, hGLP-1R mouse plasma, PO 0.3 mg/kg, mean, read-out: Cmax): 27 ng/mL; MRT inf [4]: 62.4 min; MRT last [4]: 49.2 min; half-life (0.3 mg/kg, hGLP-1R mouse plasma, PO 0.3 mg/kg, mean, read-out: T1/2 (converted)): 36.2 min; Tmax (0.3 mg/kg, hGLP-1R mouse plasma, PO 0.3 mg/kg, mean, read-out: Tmax): 25 min; AUC(0-t) (1 mg/kg, hGLP-1R mice, total, PO 1.0 mg/kg, read-out: AUClast Mean): 85.5 ng·h/mL; Cmax (1 mg/kg, hGLP-1R mice, total, PO 1.0 mg/kg, read-out: Cmax Mean): 49.7 ng/mL; Tmax (1 mg/kg, hGLP-1R mice, total, PO 1.0 mg/kg, read-out: Tmax Median): 30 min; concentration at 120 min (1 mg/kg, PO 1 mg/kg, read-out: Mean Concentration): 21.4 ng/mL; concentration at 0.25 h [5]: 43.5 ng/mL; concentration at 0.25 h [6]: 35.7 ng/mL; concentration at 0.5 h [5]: 62.8 ng/mL; concentration at 0.5 h [6]: 48.1 ng/mL; concentration at 1 h [6]: 39.5 ng/mL; concentration at 2 h (1 mg/kg, hGLP-1R mouse plasma, PO 1 mg/kg): 14.5 ng/mL; concentration at 4 h [5]: 3.59 ng/mL; concentration at 4 h [6]: 3.4 ng/mL; concentration at 8 h (1 mg/kg, hGLP-1R mouse plasma, PO 1 mg/kg, 8 h, read-out: Mean Concentration): 2.42 ng/mL; AUC0-inf [7]: 105 ng·h/mL; AUC(0-t) (1 mg/kg, hGLP-1R mouse plasma, PO 1 mg/kg, individual mice, read-out: AUC0-last): 101 ng·h/mL; Cmax (1 mg/kg, hGLP-1R mouse plasma, PO 1 mg/kg, individual mice, read-out: Cmax): 62.8 ng/mL; MRT last [7]: 78 min; Tmax (1 mg/kg, hGLP-1R mouse plasma, PO 1 mg/kg, individual mice, read-out: Tmax): 30 min; AUC0-inf [8]: 93.8 ng·h/mL; AUC(0-t) (1 mg/kg, hGLP-1R mouse plasma, PO 1 mg/kg, mean, read-out: AUC0-last): 85.5 ng·h/mL; Cmax (1 mg/kg, hGLP-1R mouse plasma, PO 1 mg/kg, mean, read-out: Cmax): 49.7 ng/mL; MRT inf [8]: 161 min; MRT last [8]: 109 min; half-life (1 mg/kg, hGLP-1R mouse plasma, PO 1 mg/kg, mean, read-out: T1/2 (converted)): 119 min; Tmax (1 mg/kg, hGLP-1R mouse plasma, PO 1 mg/kg, mean, read-out: Tmax): 40 min; Tmax (3 mg/kg, hGLP-1R mice, oral, across the doses tested (0.3, 1 and, for Compound 2, 3 mg/kg), read-out: median Tmax): 30 min; half-life (hGLP-1R male mice, oral, across doses, read-out: terminal T1/2): < 120 min
